Data as given in ChEMBL document CHEMBL1212741, “Comparative efficacies of two antimony regimens to treat Leishmania braziliensis-induced cutaneous Leishmaniasis in rhesus macaques (Macaca mulatta)” (Antimicrob Agents Chemother, 2010).
Active and inactive are the calls of the source. The calls are words filed in the database; no cut-off is given here.

How the values were obtained:
[1] = tested on: Leishmania braziliensis; test: […] activity against Leishmania braziliensis MHOM/BR/2000/CP13396 infected Rhesus monkey assessed as total decrease in parasite-induced skin lesions at 20 mg/kg, intramuscular daily for 21 days administered 9 weeks post infection; format: functional, organism-based; set-up: dose 20 mg/kg
[2] = tested on: Leishmania braziliensis; test: […] activity against Leishmania braziliensis MHOM/BR/2000/CP13396 infected Rhesus monkey assessed as relapse in parasite-induced skin lesions at 5 mg/kg, intramuscular daily for 21 days administered 9 weeks post infection; format: functional, organism-based; set-up: dose 5 mg/kg
[3] = Drug level in liver of Leishmania braziliensis MHOM/BR/2000/CP13396 infected rhesus monkey at 5 mg/kg, im qd for 21 days administered 9 weeks postinfection measured 55 days after compound dosing; format: ADME, organism-based, Macaca mulatta; set-up: dose 5 mg/kg, route intramuscular; conditions: in vivo, 1320 h
[4] = Drug level in liver of Leishmania braziliensis MHOM/BR/2000/CP13396 infected rhesus monkey at 5 mg/kg, im qd for 21 days administered 9 weeks postinfection measured 95 days after compound dosing; format: ADME, organism-based, Macaca mulatta; set-up: dose 5 mg/kg, route intramuscular; conditions: in vivo, 2280 h
[5] = tested on: Rhesus monkey; test: Hepatotoxicity in Leishmania braziliensis MHOM/BR/2000/CP13396 infected rhesus monkey assessed as incidence of hepatocellular acidophilic necrosis at 5 mg/kg, im qd for 21 days administered 9 weeks postinfection; format: toxicity, organism-based, Macaca mulatta; set-up: dose 5 mg/kg, route intramuscular; conditions: in vivo
[6] = Drug level in liver of Leishmania braziliensis MHOM/BR/2000/CP13396 infected rhesus monkey at 20 mg/kg, im qd for 21 days administered 9 weeks postinfection measured 95 days after compound dosing; format: ADME, organism-based, Macaca mulatta; set-up: dose 20 mg/kg, route intramuscular; conditions: in vivo, 2280 h
[7] = Drug level in kidney of Leishmania braziliensis MHOM/BR/2000/CP13396 infected rhesus monkey at 20 mg/kg, im qd for 21 days administered 9 weeks postinfection measured 95 days after compound dosing; format: ADME, organism-based, Macaca mulatta; set-up: dose 20 mg/kg, route intramuscular; conditions: in vivo, 2280 h
[8] = Drug level in kidney of Leishmania braziliensis MHOM/BR/2000/CP13396 infected rhesus monkey at 5 mg/kg, im qd for 21 days administered 9 weeks postinfection measured 95 days after compound dosing; format: ADME, organism-based, Macaca mulatta; set-up: dose 5 mg/kg, route intramuscular; conditions: in vivo, 2280 h
[9] = Drug level in liver of Leishmania braziliensis MHOM/BR/2000/CP13396 infected rhesus monkey at 20 mg/kg, im qd for 21 days administered 9 weeks postinfection measured 55 days after compound dosing; format: ADME, organism-based, Macaca mulatta; set-up: dose 20 mg/kg, route intramuscular; conditions: in vivo, 1320 h
[10] = Drug level in kidney of Leishmania braziliensis MHOM/BR/2000/CP13396 infected rhesus monkey at 5 mg/kg, im qd for 21 days administered 9 weeks postinfection measured 55 days after compound dosing; format: ADME, organism-based, Macaca mulatta; set-up: dose 5 mg/kg, route intramuscular; conditions: in vivo, 1320 h
[11] = Drug level in spleen of Leishmania braziliensis MHOM/BR/2000/CP13396 infected rhesus monkey at 20 mg/kg, im qd for 21 days administered 9 weeks postinfection measured 55 days after compound dosing; format: ADME, organism-based, Macaca mulatta; set-up: dose 20 mg/kg, route intramuscular; conditions: in vivo, 1320 h
[12] = Drug level in kidney of Leishmania braziliensis MHOM/BR/2000/CP13396 infected rhesus monkey at 20 mg/kg, im qd for 21 days administered 9 weeks postinfection measured 55 days after compound dosing; format: ADME, organism-based, Macaca mulatta; set-up: dose 20 mg/kg, route intramuscular; conditions: in vivo, 1320 h
[13] = tested on: Rhesus monkey; test: Toxicity in Leishmania braziliensis MHOM/BR/2000/CP13396 infected rhesus monkey assessed as incidence of toxicity symptoms at 20 mg/kg, im qd for 21 days administered 9 weeks postinfection; format: organism-based, Macaca mulatta; set-up: dose 20 mg/kg, route intramuscular; conditions: in vivo
[14] = Drug level in spleen of Leishmania braziliensis MHOM/BR/2000/CP13396 infected rhesus monkey at 20 mg/kg, im qd for 21 days administered 9 weeks postinfection measured 95 days after compound dosing; format: ADME, organism-based, Macaca mulatta; set-up: dose 20 mg/kg, route intramuscular; conditions: in vivo, 2280 h
[15] = Drug level in spleen of Leishmania braziliensis MHOM/BR/2000/CP13396 infected rhesus monkey at 5 mg/kg, im qd for 21 days administered 9 weeks postinfection measured 55 days after compound dosing; format: ADME, organism-based, Macaca mulatta; set-up: dose 5 mg/kg, route intramuscular; conditions: in vivo, 1320 h
[16] = Drug level in spleen of Leishmania braziliensis MHOM/BR/2000/CP13396 infected rhesus monkey at 5 mg/kg, im qd for 21 days administered 9 weeks postinfection measured 95 days after compound dosing; format: ADME, organism-based, Macaca mulatta; set-up: dose 5 mg/kg, route intramuscular; conditions: in vivo, 2280 h
[17] = tested on: Rhesus monkey; test: Hepatotoxicity in Leishmania braziliensis MHOM/BR/2000/CP13396 infected rhesus monkey assessed as incidence of hepatocellular acidophilic necrosis at 20 mg/kg, im qd for 21 days administered 9 weeks postinfection; format: toxicity, organism-based, Macaca mulatta; set-up: dose 20 mg/kg, route intramuscular; conditions: in vivo
[18] = tested on: Rhesus monkey; test: Toxicity in Leishmania braziliensis MHOM/BR/2000/CP13396 infected rhesus monkey assessed as incidence of toxicity symptoms at 5 mg/kg, im qd for 21 days administered 9 weeks postinfection; format: organism-based, Macaca mulatta; set-up: dose 5 mg/kg, route intramuscular; conditions: in vivo

Sequence	inhibition [1]	Activity [2] [%]	Drug uptake [3] [ng/g]	Drug uptake [4] [ng/g]	Activity [5]	Drug uptake [6] [ng/g]	Drug uptake [7] [ng/g]	Drug uptake [8] [ng/g]	Drug uptake [9] [ng/g]	Drug uptake [10] [ng/g]	Drug uptake [11] [ng/g]	Drug uptake [12] [ng/g]	Activity [13]	Drug uptake [14] [ng/g]	Drug uptake [15] [ng/g]	Drug uptake [16] [ng/g]	Activity [17]	Activity [18]
MEGLUMINE ANTIMONATE [listing 1 of 2 here]	Active	50	–	–	–	–	–	–	–	–	–	–	–	–	–	–	–	–
MEGLUMINE ANTIMONATE [listing 2 of 2 here]	–	–	2913	669.3	Toxic	1800	313	152	4800	500	1593	698.3	Non-toxic	2220	1433	476.7	Toxic	Non-toxic
